Reference: US20250262191A1, “NEW CRYSTAL FORM OF NITROGEN-CONTAINING TRICYCLIC COMPOUND AND USE THEREOF” (SUNSHINE LAKE PHARMA CO., LTD., priority 2021, published 2025)

Columns and labels:
[1] = Pharmacokinetic experiment in Beagle dogs, oral capsules; type: in vivo; conditions: male Beagle dogs, 5 mg/kg
Method: The crystal form H of the compound having Formula (I) was filled into capsules, which were used for oral administration.
Three male Beagle dogs weighing 8-12 kg were orally administered with capsules containing the test sample at a dose of 5 mg/kg, and blood samples were taken at time points of 0.25 h, 0.5 h, 1.0 h, 2.0 h, 4.0 h, 6.0 h, 8.0 h and 24 h. Standard curve was plotted based on concentrations of the samples in a suitable range, the concentration of the test sample in the plasma sample was measured and quantified by AB SCIEX API4000 LC-MS/MS at MRM mode. Pharmacokinetic parameters were calculated according to drug concentration-time curve using a noncompartmental method by WinNonLin 6.3 software.

[2] = Stability experiment (high-temperature, high-humidity and photostability tests); type: physicochemical
Method: (§1) (1) High-temperature test: A batch of the test sample was taken into a flat weighing bottle, divided into ≤5 mm thick thin layer. The sample was placed at 60° C. for 30 days. The sample was then sampled at day 5, day 13 and day 30, and the change of the sample's color was observed. The purity of the sample was detected by HPLC.
as §1, with “(2) High-humidity” for “(1) High-temperature”, “25° C., RH 90%±5%” for “60° C.”
as §1, with “(3) Photostability” for “(1) High-temperature”, “placed in an opened light box (with UV)” for “placed”, “the illuminance […], UV light ≥0.7 w/m^2” for “60° C.”

[3] = Hygroscopicity experiment by dynamic moisture adsorption (DVS); type: physicochemical; conditions: relative humidity of 80%, 25° C.
Method: The hygroscopicity of the present invention is measured using the DVS INT-Std dynamic moisture and gas adsorption analyzer of the Surface Measurement Systems Company in UK. The humidity test range was 0%-95%, the air flow was 200 mL/min, the temperature was 25° C., test point: take one test point per […] 5% humidity.
An appropriate amount of the test sample was taken and the hygroscopicity of the test sample was tested by dynamic moisture adsorption device. The description of the hygroscopic characteristics and the definition of the hygroscopic weight gain (Appendix 9103 of Chinese Pharmacopoeia 2020 Edition, Guidelines for Drug Hygroscopicity Tests, experimental conditions: 25° C.±1° C., 80%±2% relative humidity) are described in the table below: […]

[4] = High-humidity 25° C., RH 90%±5%, day 5
[5] = High-humidity 25° C., RH 90%±5%, day 13
[6] = High-humidity 25° C., RH 90%±5%, day 30
[7] = High-temperature 60° C., day 13
[8] = High-temperature 60° C., day 30
[9] = Lighting (light box with UV), day 5
[10] = Lighting (light box with UV), day 13
[11] = Lighting (light box with UV), day 30

AUC(0-t) ([1]; dog, plasma): 1130 ng·h/mL | Cmax ([1]; dog, plasma): 514 ng/mL | Tmax ([1]; dog, plasma): 1.33 h | exposure in Beagle dogs [1]: relatively large exposure | Appearance [2, 4]: White | Purity (HPLC) [2, 4]: 99.89% | Appearance [2, 5]: White | Purity (HPLC) [2, 5]: 99.92% | Appearance [2, 6]: White | Purity (HPLC) [2, 6]: 99.85% | Appearance ([2]; High-temperature 60° C., day 5): White | Purity (HPLC) ([2]; High-temperature 60° C., day 5): 99.89% | Appearance [2, 7]: White | Purity (HPLC) [2, 7]: 99.72% | Appearance [2, 8]: White | Purity (HPLC) [2, 8]: 99.86% | Appearance [2, 9]: White | Purity (HPLC) [2, 9]: 99.90% | Appearance [2, 10]: White | Purity (HPLC) [2, 10]: 99.91% | Appearance [2, 11]: White | Purity (HPLC) [2, 11]: 99.72% | Appearance ([2]; day 0): White | Purity (HPLC) ([2]; day 0): 99.83% | crystal structure stability ([2]; high temperature conditions): remains basically unchanged | crystal structure stability ([2]; high temperature, high humidity and/or lighting conditions): remains basically unchanged | changes in the appearance and chemical purity ([2]; high-temperature, high-humidity and/or lighting): no obvious changes | hygroscopic characteristics [3]: lightly hygroscopic
Structure (SMILES): O=C(O)c1ccc2c(c1)Oc1ccc(OCc3c(-c4c(Cl)cccc4Cl)noc3C3CC3)nc1C1(CC1)C2 [Crystal form H, 2-((5-cyclopropyl-3-(2,6-dichlorophenyl)isoxazol-4-yl)methoxy)-10H-spiro[benzo[6,7]oxepino[3,2-b]pyridine-11,1′-cyclopropane]-7-carboxylic acid]
